In patent publication US9238631B2, “Radiolabeled amino acids for diagnostic imaging” (PIRAMAL IMAGING SA, priority 2011, dated 2016):
Each block holds one compound with its values, some of them ahead of it.

Experiments:
[1] = tested on: NCI-H460 (human NSCLC) cells; experiment: Cell uptake studies: 30 min uptake in H460 cells; assay type: cell-based; conditions: 0.25 MBq tracer, PBS 0.1% BSA
Procedure: For determination of the biological activity, the F18 labeled derivatives were used as tracers in cell uptake experiments. NCI-H460 (human NSCLC) cells, grown adherently in 48 well plates were used for these uptake-experiments. Approximately 100.000 cells were incubated with 0.25 MBq of the tracers for 30 min in PBS-buffer containing 0.1% BSA. After this time, the cell-bound radioactivity was determined using a γ-counter.

[2] = target: T1, xCT (SLC7A11) (Homo sapiens, UniProt Q9UPY5); experiment: Competition profile indicating uptake via xCT (SLC7A11); assay type: cell-based; conditions: NCI-H460 cells; for competition profile / uptake mechanism of the tracer: co-incubation with 1 mM cold competitors; for reduction of [^18F]-12 uptake by excess competitor: competitor 1 mM
T1 construct: NCI-H460 tumor cells were co-incubated with the F-18 labeled tracer and several cold derivatives; endogenous in cells; host or cells: NCI-H460 tumor cells
T1 sequence (Q9UPY5 1-501): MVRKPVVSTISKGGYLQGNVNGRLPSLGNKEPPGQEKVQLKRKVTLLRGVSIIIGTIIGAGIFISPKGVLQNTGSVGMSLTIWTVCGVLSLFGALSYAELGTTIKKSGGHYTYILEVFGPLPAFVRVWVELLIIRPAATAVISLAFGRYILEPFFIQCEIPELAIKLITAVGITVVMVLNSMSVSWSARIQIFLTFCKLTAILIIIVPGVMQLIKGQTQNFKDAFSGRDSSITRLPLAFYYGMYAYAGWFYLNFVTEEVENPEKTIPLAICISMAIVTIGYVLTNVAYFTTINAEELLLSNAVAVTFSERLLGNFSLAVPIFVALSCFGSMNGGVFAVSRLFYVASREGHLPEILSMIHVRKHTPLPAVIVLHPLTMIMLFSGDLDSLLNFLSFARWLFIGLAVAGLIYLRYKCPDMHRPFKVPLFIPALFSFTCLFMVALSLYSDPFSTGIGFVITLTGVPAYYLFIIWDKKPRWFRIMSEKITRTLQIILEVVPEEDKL
T1 sequence (P08195 1-529 partner): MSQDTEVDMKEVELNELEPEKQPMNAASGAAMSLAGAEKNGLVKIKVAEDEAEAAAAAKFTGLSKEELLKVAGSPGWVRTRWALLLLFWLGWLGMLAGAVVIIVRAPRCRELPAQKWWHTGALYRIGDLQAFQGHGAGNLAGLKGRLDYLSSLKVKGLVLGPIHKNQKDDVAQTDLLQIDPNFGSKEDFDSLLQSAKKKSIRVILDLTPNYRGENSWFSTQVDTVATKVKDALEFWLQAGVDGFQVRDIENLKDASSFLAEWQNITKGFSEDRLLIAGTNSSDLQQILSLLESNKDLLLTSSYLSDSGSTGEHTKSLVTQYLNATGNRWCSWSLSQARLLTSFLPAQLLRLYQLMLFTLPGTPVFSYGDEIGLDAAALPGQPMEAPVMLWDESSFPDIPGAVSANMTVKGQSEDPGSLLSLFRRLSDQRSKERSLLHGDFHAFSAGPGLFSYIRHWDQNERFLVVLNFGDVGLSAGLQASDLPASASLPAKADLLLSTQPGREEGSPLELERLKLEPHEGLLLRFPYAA
Procedure: For determination of the responsible uptake mechanism, NCI-H460 tumor cells were co-incubated with the F-18 labeled tracer and several cold derivatives. These derivatives were used at a concentration of 1 mM, which is a large excess compared to the tracer. L-Glutamic acid, L-cystine, Carboxyphenylglycine (CPG) were used as competitors. In addition, also D-Glutamic acid, as well as L-aspartic acid and D-aspartic acid were used in this competition experiments. […] The same experiments were performed using [^18F]-1, [^18F]-4, [^18F]-9, [^18F]-8, [^18F]-25 and [^18F]-22.

[3] = tested on: NCI-H460 tumor; experiment: In vivo biodistribution in NCI-H460 tumor bearing mice; conditions: for T/Blood / T/Muscle: 1 h post injection
Procedure: (§1) To test the pharmacokinetic properties of compounds from the present invention, all F18-labeled compounds were examined by biodistribution studies in NCI-H460 tumor bearing mice. Female NMRI (nu/nu) mice were inoculated with 5×10^6 NCI-H460 tumor cells 8 to 10 days before the biodistribution studies. 185 kBq of activity of the fluorinated compound was injected and at least n=3 mice were used for every time point. After injection of the F18-labeled compound, mice were sacrificed at defined time-points. All organs were removed and radioactivity was determined using a γ-counter.
To compare the tumor uptake and retention of radioactivity of different ^18F-labeled derivatives from the present invention, biodistribution studies were performed in NCI-H460 tumor bearing NMRI (nu/nu) mice as described above.
To compare the kidney clearance of several ^18F-labeled derivatives from the present invention, biodistribution studies were performed in NCI-H460 tumor bearing female NMRI (nu/nu) mice as described above. […] After 2 h p.i., less than 1% ID/g can be found in the kidneys.
For comparison of pancreas uptake and clearance of several ^18F-labeled derivatives from the present invention, biodistribution studies were performed in NCI-H460 tumor bearing NMRI (nu/nu) mice as described above. […] After 2 h p.i., less than 2% ID/g can be found in the pancreas.
as §1, with “and” for “for every time point. After injection of the F18-labeled compound, mice were”, “time-points raning from 15 min pi up to 2 h p.i.” for “time-points.”, “γ-counter. […] High tumor uptake values of >3% ID/g were obtained with various compounds from the present invention.” for “γ-counter.”

[4] = tested on: NCI-H460 (human NSCLC) cells; experiment: In vitro cell-uptake study: blocking of radiolabeled glutamate derivative uptake; assay type: cell-based; conditions: compound 1 mM, 30 minutes, mean ± SD, without compound = 100%
Procedure: The ability of compounds from the present invention to compete with radiolabeled glutamate derivatives for uptake into tumor cells was examined. NCI-H460 (human NSCLC) cells, grown adherently in 48 well plates were used for these competition-experiments. Approximately 100.000 cells were co-incubated in PBS-buffer containing 0.1% BSA with a radiolabeled Glutamic acid derivative and several compounds, which were used at a concentration of 1 mM for 30 minutes. After this time, the cell bound radioactivity was determined.

[5] = tested on: NCI-H460 tumor; experiment: PET imaging in NCI-H460 tumor bearing nude-rats; assay type: in vivo; conditions: PET ROI analysis, 1 h p.i.
Procedure: c) Beside PET-imaging studies in mice, also the imaging properties of [^18F]-12 in rats were examined. NCI-H460 tumor cells were inoculated into the right flank of nude-rats (RH-Foxn1 nu/nu) 8 to 10 days before the PET study. PET images were acquired at 60 min after injection of approximately 10 MBq for 10 minutes. The H460 tumor was nicely visible (0.9% ID/g as determined by ROI analysis). Beside some minor uptake into the liver and kidneys due to the excretion of the compound, no uptake into other non-target tissues was observed.
To test the imaging properties, compounds from the present invention were evaluated in PET imaging studies using tumor bearing rats. NCI-H460 tumor cells were inoculated into the right flank of nude-rats (RH-Foxn1 nu/nu) 8 to 10 days before the PET study. PET images were acquired at 60 min after injection of approximately 10 MBq for 10 minutes. After the imaging study, region-of-interest (ROI) analysis was performed and activity in tumor, liver and kidney was determined. […] High tumor uptake values of >1% […] in this rat model were obtained with various compounds from the present invention. A favorable clearance profile of all compounds enables excellent tumor detection in PET imaging studies in tumor bearing rats.

competition profile / uptake mechanism of the tracer [2]: identical competition profile | Kidney (% ID/g at 1 h p.i.) [3]: 0.2 ± 0.05 % ID/g | Liver (% ID/g at 1 h p.i.) [3]: 0.2 ± 0.1 % ID/g | Pancreas (% ID/g at 1 h p.i.) [3]: 0.04 ± 0.01 % ID/g | Tumor (% ID/g at 1 h p.i.) [3]: 0.5 ± 0.1 % ID/g | Urine (% ID at 1 h p.i.) [3]: 86.6 ± 4.4 % ID | T/Blood [3]: 9.7 | T/Muscle [3]: 32.2
Compound: N[C@@H](C[C@H](CCCc1ccc(OCC[18F])cc1)C(=O)O)C(=O)O [[^18F]-25, (4S)-4-{3-[4-(2-[^18F]Fluoroethoxy)phenyl]propyl}-L-glutamic acid]
30 min uptake into H460 cells [%/100.000 cells] [1]: 3.1 ± 01 %/100.000 cells

reduction of [^18F]-12 uptake by excess competitor [2]: less effective competitors
Compound: N[C@@H](CC(=O)O)C(=O)O [L-aspartic, L-aspartic acid, reference compound]

reduction of [^18F]-12 uptake by excess competitor [2]: less effective competitors
Compound: N[C@H](CC(=O)O)C(=O)O [D-aspartic acid, reference compound]

Compound: N[C@@H](CSSC[C@H](N)C(=O)O)C(=O)O [L-cystine, reference compound]
Uptake of radiolabeled glutamate-derivative (% of control) [4]: 10.7 ± 0.7 % of control

competition profile / uptake mechanism of the tracer [2]: identical competition profile | Kidney (% ID/g at 1 h p.i.) [3]: 2.8 ± 0.6 % ID/g | Liver (% ID/g at 1 h p.i.) [3]: 1.3 ± 0.3 % ID/g | Pancreas (% ID/g at 1 h p.i.) [3]: 2.2 ± 0.4 % ID/g | Tumor (% ID/g at 1 h p.i.) [3]: 4.6 ± 0.9 % ID/g | Urine (% ID at 1 h p.i.) [3]: 92.7 ± 3.8 % ID | T/Blood [3]: 26.8 | T/Muscle [3]: 46.3
Compound: N[C@@H](CC(Cc1ccc(NCCC[18F])cc1)C(=O)O)C(=O)O (stereo partly drawn) [[^18F]-8, 4-{4-[(3-[^18F]Fluoropropyl)amino]benzyl}-L-glutamic acid]
30 min uptake into H460 cells [%/100.000 cells] [1]: 15.3 ± 0.1 %/100.000 cells

Compound: N[C@@H](CC(Cc1ccc(CCCF)cc1)C(=O)O)C(=O)O (stereo partly drawn) [Example 9, 4-[4-(3-Fluoropropyl)benzyl]-L-glutamic acid]
Uptake of radiolabeled glutamate-derivative (% of control) [4]: 14.2 ± 1.0 % of control

Compound: N[C@@H](C[C@H](Cc1ccc(OCCF)cc1)C(=O)O)C(=O)O [Example 1, (4S)-4-[4-(2-Fluoroethoxy)benzyl]-L-glutamic acid]
Uptake of radiolabeled glutamate-derivative (% of control) [4]: 5.0 ± 0.2 % of control

Kidney (% ID/g at 1 h p.i.) [5]: 1.2 % ID/g | Liver (% ID/g at 1 h p.i.) [5]: 1.1 % ID/g | Tumor (Max % ID/g at 1 h p.i.) [5]: 1 % ID/g | Tumor (Mean % ID/g at 1 h p.i.) [5]: 0.7 % ID/g | competition profile / uptake mechanism of the tracer [2]: identical competition profile | Kidney (% ID/g at 1 h p.i.) [3]: 1.0 ± 0.3 % ID/g | Liver (% ID/g at 1 h p.i.) [3]: 1.5 ± 0.5 % ID/g | Pancreas (% ID/g at 1 h p.i.) [3]: 0.8 ± 0.1 % ID/g | Tumor (% ID/g at 1 h p.i.) [3]: 2.8 ± 1.8 % ID/g | Urine (% ID at 1 h p.i.) [3]: 79.8 ± 2.2 % ID | T/Blood [3]: 14.5 | T/Muscle [3]: 38.8
Compound: N[C@@H](CC(Cc1ccc(OCCC[18F])cc1)C(=O)O)C(=O)O (stereo partly drawn) [[^18F]-4, 4-[4-(3-[^18F]Fluoropropoxy)benzyl]-L-glutamic acid]
30 min uptake into H460 cells [%/100.000 cells] [1]: 10.0 ± 0.3 %/100.000 cells

competition profile / uptake mechanism of the tracer [2]: identical competition profile | Kidney (% ID/g at 1 h p.i.) [3]: 0.7 ± 0.04 % ID/g | Liver (% ID/g at 1 h p.i.) [3]: 0.2 ± 0.1 % ID/g | Pancreas (% ID/g at 1 h p.i.) [3]: 0.1 ± 0.01 % ID/g | Tumor (% ID/g at 1 h p.i.) [3]: 1.8 ± 0.9 % ID/g | Urine (% ID at 1 h p.i.) [3]: 86.3 ± 7.1 % ID | T/Blood [3]: 20.5 | T/Muscle [3]: 61.7
Compound: N[C@@H](CC(Cc1ccc(CCC[18F])cc1)C(=O)O)C(=O)O (stereo partly drawn) [[^18F]-9, 4-[4-(3-[^18F]Fluoropropyl)benzyl]-L-glutamic acid]
30 min uptake into H460 cells [%/100.000 cells] [1]: 4.3 ± 0.2 %/100.000 cells

Compound: N[C@@H](CCC(Cc1ccc(OCCF)cc1)C(=O)O)C(=O)O (stereo partly drawn) [Example 12, (2S)-2-Amino-5-[4-(2-Fluoroethoxy)benzyl]-hexanedioic acid]
Uptake of radiolabeled glutamate-derivative (% of control) [4]: 3.9 ± 0.3 % of control

Compound: N[C@H](CCC(=O)O)C(=O)O [D-Glutamic acid, reference compound]
reduction of [^18F]-12 uptake by excess competitor [2]: less effective competitors

Compound: N[C@@H](C[C@H](CCCc1ccc(OCCF)cc1)C(=O)O)C(=O)O [Example 25, (4S)-4-{3-[4-(2-Fluoroethoxy)phenyl]propyl}-L-glutamic acid]
Uptake of radiolabeled glutamate-derivative (% of control) [4]: 20.1 ± 0.4 % of control

Compound: N[C@@H](C[C@H](Cc1ccc(OCCCF)cc1)C(=O)O)C(=O)O [Example 4, (4S)-4-[4-(3-Fluoropropoxy)benzyl]-L-glutamic acid]
Uptake of radiolabeled glutamate-derivative (% of control) [4]: 3.0 ± 0.1 % of control

Compound: N[C@H](C[C@@H](Cc1ccc(OCCCF)cc1)C(=O)O)C(=O)O [Example 24, (4R)-4-[4-(3-Fluoropropoxy)benzyl]-D-glutamic acid]
Uptake of radiolabeled glutamate-derivative (% of control) [4]: 36.5 ± 3.8 % of control

Compound: N[C@@H](CC(CCCc1ccc(CCCF)cc1)C(=O)O)C(=O)O (stereo partly drawn) [Example 19, 4-{3-[4-(3-Fluoropropyl)phenyl]propyl}-L-glutamic acid]
Uptake of radiolabeled glutamate-derivative (% of control) [4]: 6.6 ± 1.6 % of control
